Where two headings read alike, the source gives them in different places.
What was measured:
[1] = test system: OR71a; design: method as in earlier work; conditions: DoOR database value, ref DoOR, cited from earlier work
[2] = target: T1, Drosophila OR49b (Drosophila melanogaster, UniProt Q9V6H2); test: cell-based; design: GCaMP6 calcium fluorescence in stable HEK293 OR+ORCO lines; peak dF normalised to 50 uM VUAA1 (=1); conditions: HEK293; relative to 50 uM VUAA1 response; below 0.05 set to 0; read-out: % activation
T1 construct: expressed in transfected cells
T1 sequence (Q9V6H2 1-375): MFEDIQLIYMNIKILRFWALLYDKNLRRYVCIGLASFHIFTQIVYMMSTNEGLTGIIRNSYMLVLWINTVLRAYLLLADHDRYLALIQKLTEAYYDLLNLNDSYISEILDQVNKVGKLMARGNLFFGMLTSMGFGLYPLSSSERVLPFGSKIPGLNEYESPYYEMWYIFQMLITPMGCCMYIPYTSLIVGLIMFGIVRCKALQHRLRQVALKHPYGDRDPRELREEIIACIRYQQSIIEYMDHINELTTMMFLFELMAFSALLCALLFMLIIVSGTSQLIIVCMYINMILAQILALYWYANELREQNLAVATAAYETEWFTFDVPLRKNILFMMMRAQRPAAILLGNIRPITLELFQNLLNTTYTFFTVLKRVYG
T1 sequence (Q9VNB5 1-486 partner): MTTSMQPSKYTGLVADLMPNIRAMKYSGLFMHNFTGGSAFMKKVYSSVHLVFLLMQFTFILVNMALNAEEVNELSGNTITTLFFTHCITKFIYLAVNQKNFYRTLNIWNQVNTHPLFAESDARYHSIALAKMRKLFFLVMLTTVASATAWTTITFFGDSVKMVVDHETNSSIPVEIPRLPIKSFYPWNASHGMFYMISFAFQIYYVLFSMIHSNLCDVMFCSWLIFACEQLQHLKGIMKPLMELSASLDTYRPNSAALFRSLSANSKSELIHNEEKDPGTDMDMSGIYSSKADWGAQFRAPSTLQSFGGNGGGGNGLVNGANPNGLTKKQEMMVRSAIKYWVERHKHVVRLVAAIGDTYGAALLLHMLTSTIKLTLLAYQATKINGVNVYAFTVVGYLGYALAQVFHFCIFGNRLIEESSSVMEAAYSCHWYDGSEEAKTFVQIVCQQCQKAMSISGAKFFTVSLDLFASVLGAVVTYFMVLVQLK
Procedure: (§1) Twelve thousand to 18,000 cells were plated into each well of a black wall, transparent bottom 384-well microplate (Greiner) 48 h or 72 h before the measurements and were simultaneously treated with 1 μg/mL doxycycline. […] The plate has 24 columns, thus we could record responses in up to eight different cell lines in each plate. On the day of the experiment, the growth medium was replaced with 20 µL assay buffer/well (140 mM NaCl, 5 mM KCl, 2 mM CaCl2, 1 mM MgCl2, 5 mM HEPES-Na, 20 mM glucose, pH 7.3, 340 mOsm). […] Baseline fluorescence (F0) was recorded for 5 s, after which 7 µL VOC buffer (140 mM NaCl, 5 mM KCl, 2 mM CaCl2, 1 mM MgCl2, 5 mM HEPES-Na, 31 mM glucose, 0.1% DMSO, pH 7.3, 340 mOsm) was injected into each well in one row and the fluorescence response was recorded for an additional 30 s, at a rate of one read/sec. VOC solutions (VOC buffer with 4× concentration of the final measured VOC concentration, 9 µL/well was injected) were measured on the same wells in a second round with the same protocol. Each individual concentration of a specific VOC sample was recorded in three wells for the same cell line on the same microplate. The raw data were exported in xls file format, F0 and FMAX values, and the fluorescence intensity changes (∆F) were calculated in Excel (Microsoft) (Supplementary file Data summary.xlsx) using the following equation: ΔF=FMAX-F0/F0 (see also Fig. 1C). On each plate, we recorded the response of each cell line to 50 µM VUAA1. The average of these ∆F values of each cell line were used to calculate the VUAA1-normalized values for the rest of the plate, by dividing VOC response ∆F values by the average VUAA1 response ∆F value of the corresponding OR cell line. Each VOC-OR combination was measured three times as tec The recorded FMAX, F0, ∆F, VUAA1-normalized ∆F values, as well as the OR name, the name of the tested sample, and the final concentration for each well were copied into supplementary file Data summary.xlsx, that was used to summarize all the plates recorded. Here, the averages of the measurements were calculated for each receptor-VOC-concentration combination. […] Each VOC was measured at 1, 10, and 100 µM final concentration on each receptor. VUAA1-normalized response was calculated as described in methods.

[3] = target: T2, Drosophila OR47a (Drosophila melanogaster, UniProt P81921); test: cell-based; design: GCaMP6 calcium fluorescence in stable HEK293 OR+ORCO lines; peak dF normalised to 50 uM VUAA1 (=1); conditions: relative to 50 uM VUAA1 response, below 0.05 set to 0; for activity at 1 µM / activity at 10 µM / activity at 100 µM: HEK293, read-out: % activation; for % activation: 10 µM, agonist, 10 / OR47a
T2 construct: expressed in transfected cells
T2 sequence (P81921 1-385): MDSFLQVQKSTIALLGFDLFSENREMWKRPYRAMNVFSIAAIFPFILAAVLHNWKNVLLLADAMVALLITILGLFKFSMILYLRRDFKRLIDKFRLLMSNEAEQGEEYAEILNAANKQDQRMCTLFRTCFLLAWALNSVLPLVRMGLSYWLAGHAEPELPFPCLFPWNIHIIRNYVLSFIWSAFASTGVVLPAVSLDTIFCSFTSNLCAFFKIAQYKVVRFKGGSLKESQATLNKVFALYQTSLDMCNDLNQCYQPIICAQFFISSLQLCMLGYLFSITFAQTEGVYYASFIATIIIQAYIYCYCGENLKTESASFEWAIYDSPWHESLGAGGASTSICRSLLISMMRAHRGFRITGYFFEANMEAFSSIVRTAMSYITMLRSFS
T2 sequence (Q9VNB5 1-486 partner): T1 sequence (Q9VNB5 1-486 partner)
Procedure: as §1

[4] = target: T3, Drosophila OR85b (Drosophila melanogaster, UniProt Q9VHQ7); test: cell-based; design: GCaMP6 calcium fluorescence in stable HEK293 OR+ORCO lines; peak dF normalised to 50 uM VUAA1 (=1); conditions: relative to 50 uM VUAA1 response, below 0.05 set to 0; for activity at 1 µM / activity at 10 µM / activity at 100 µM: HEK293, read-out: % activation; for % activation: agonist
T3 construct: expressed in transfected cells
T3 sequence (Q9VHQ7 1-390): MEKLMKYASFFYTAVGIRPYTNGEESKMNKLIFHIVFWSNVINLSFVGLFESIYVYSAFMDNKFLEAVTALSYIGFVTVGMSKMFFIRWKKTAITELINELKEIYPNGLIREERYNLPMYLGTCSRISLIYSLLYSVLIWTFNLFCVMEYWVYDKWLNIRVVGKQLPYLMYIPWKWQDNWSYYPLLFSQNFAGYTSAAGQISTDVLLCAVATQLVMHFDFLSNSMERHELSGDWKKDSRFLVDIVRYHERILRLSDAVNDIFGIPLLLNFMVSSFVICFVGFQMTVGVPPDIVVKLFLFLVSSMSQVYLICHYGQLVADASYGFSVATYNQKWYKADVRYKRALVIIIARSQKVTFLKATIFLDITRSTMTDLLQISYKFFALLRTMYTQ
T3 sequence (Q9VNB5 1-486 partner): T1 sequence (Q9VNB5 1-486 partner)
Procedure: as §1

OCCc1ccccc1 [phenethyl alcohol]
OR71a DoOR response ([1]; OR71a): 0.17
activity at 100 µM [2]: 9.32%
activity at 1 µM [3]: 5.64%
activity at 10 µM [3]: 6.44%
activity at 100 µM [3]: 5.7%
activity at 1 µM [4]: 9.88%
activity at 10 µM [4]: 7.58%

O=Cc1ccccc1 [benzaldehyde]
OR71a DoOR response [1]: 0.025

CC(=O)OCCC(C)C [isopentyl acetate]
OR71a DoOR response [1]: 0.03

Cc1ccc(O)cc1 [4-methylphenol]
OR71a DoOR response [1]: 0.64

COC(=O)c1ccccc1O [methyl salicylate]
OR71a DoOR response ([1]; OR71a): 0.47

Cc1ccc(C(C)C)cc1 [p-cymene]
OR71a DoOR response ([1]; OR71a): 0.063
activity at 10 µM [4]: 11.7%
activity at 100 µM [4]: 9.05%

C=C(C)C1CCC2(C)OC2C1 (single isomer, unassigned; (+)) [(+)-limonene oxide]
activity at 1 µM [2]: 0%
activity at 10 µM [2]: 0%
activity at 100 µM [2]: 0%
activity at 1 µM [3]: 0%
activity at 10 µM [3]: 0%
activity at 100 µM [3]: 0%
activity at 1 µM [4]: 0%
activity at 10 µM [4]: 0%
activity at 100 µM [4]: 0%

CCOC(=O)c1ccccc1 [ethyl benzoate]
OR71a DoOR response [1]: 0.19

CCCCCOC(C)=O [pentyl acetate]
activity at 1 µM [2]: 7.95%
activity at 100 µM [2]: 6.1%

C=CCc1ccc(O)c(OC)c1 [eugenol]
OR71a DoOR response [1]: 0.73

C=CC(C)(O)CCC=C(C)C (stereo not shown) [linalool]
activity at 100 µM [4]: 6.3%

CC(C)=CCC/C(C)=C/CC/C(C)=C/CO [e,e-farnesol]
OR71a DoOR response [1]: 0.11

C=C1CC[C@@]23C[C@@H]1C(C)(C)[C@@H]2CC[C@H]3C [(+)-beta-cedrene]
activity at 1 µM [2]: 0%
activity at 10 µM [2]: 0%
activity at 100 µM [2]: 0%
activity at 1 µM [3]: 0%
activity at 10 µM [3]: 0%
activity at 100 µM [3]: 0%
activity at 1 µM [4]: 0%
activity at 10 µM [4]: 0%
activity at 100 µM [4]: 0%

Cc1ccc(C)cc1 [p-xylene]
activity at 10 µM [4]: 15.2%
activity at 100 µM [4]: 6.07%

C=CC(O)CCCCC (stereo not shown) [1-octen-3-ol]
OR71a DoOR response [1]: 0.09

CCCCCC(=O)CC [3-octanone]
OR71a DoOR response [1]: 0.016

C=C(C)[C@H]1CC=C(C)CC1 [(R)-(+)-limonene]
activity at 1 µM [2]: 0%
activity at 10 µM [2]: 0%
activity at 100 µM [2]: 0%
activity at 1 µM [3]: 0%
activity at 100 µM [3]: 0%
% activation [3]: 0.05286%
% activation ([4]; 10 µM, 10 / OR85b): 0%
% activation ([4]; 100 µM, 100 / OR85b): 0%
% activation ([4]; 1 / OR85b, 1 µM): 0%

C=C(C)[C@H]1CC=C(C)CC1 [limonene]
% activation [3]: 0%
% activation ([4]; 10 µM, 10 / OR85b): 0.08814%
% activation ([4]; 100 µM, 100 / OR85b): 0.06443%
% activation ([4]; 1 / OR85b, 1 µM): 0.07022%

CC1=CC[C@@H](C(C)(C)O)CC1 [alpha-terpineol]
OR71a DoOR response [1]: 0.008

Cc1ccccc1C [o-xylene]
activity at 1 µM [4]: 8.04%
activity at 100 µM [4]: 8.27%

CCCCCCCCCCCCCC [tetradecane]
activity at 1 µM [2]: 6.86%
activity at 10 µM [2]: 5.2%
activity at 1 µM [4]: 9.72%
activity at 10 µM [4]: 8.44%

Cc1cccc(C)c1 [m-xylene]
activity at 100 µM [4]: 8.8%

CC1=CCC2CC1C2(C)C (stereo not drawn) [alpha-pinene]
OR71a DoOR response [1]: 0.04

CCCOC(C)=O [propyl acetate]
OR71a DoOR response ([1]; OR71a): 0.04
activity at 1 µM [4]: 5.38%

C=C1[C@H]2CC[C@@H]3[C@H]2C(C)(C)CCC[C@]13C [(+)-longifolene]
activity at 1 µM [2]: 7.75%
activity at 10 µM [2]: 0%
activity at 100 µM [2]: 0%
activity at 1 µM [3]: 0%
activity at 10 µM [3]: 0%
activity at 100 µM [3]: 0%
activity at 1 µM [4]: 8.34%
activity at 10 µM [4]: 10.9%
activity at 100 µM [4]: 0%

CC/C=C\CCOC(C)=O [Z-3-hexenyl acetate]
activity at 1 µM [4]: 14.5%

CC(=O)c1ccccc1 [acetophenone]
OR71a DoOR response [1]: 0.05

COC(=O)c1ccccc1 [methyl benzoate]
OR71a DoOR response ([1]; OR71a): 0.28
activity at 1 µM [2]: 13.4%
activity at 100 µM [3]: 5.95%

CCCCCC(O)CC (stereo not shown) [3-octanol]
OR71a DoOR response [1]: 0.01

CCCCCC(C)=O [2-heptanone]
OR71a DoOR response [1]: 0.045

C=C1CCC2(C(C)C)CC12 (stereo not shown) [sabinene]
activity at 1 µM [4]: 6.47%
activity at 100 µM [4]: 8.7%

CCCC(=O)OCC [ethyl butyrate]
OR71a DoOR response [1]: 0.046
